Laboratory results from ChEMBL document CHEMBL1123975, “2-Phenylpyrroles as conformationally restricted benzamide analogues. A new class of potential antipsychotics. 2” (J Med Chem, 1988).

Columns and labels:
Rattus norvegicus [1] = assay: Suppression of conditioned avoidance behavior in rats following p.o. administration.; type: functional; conditions: po
D(2) dopamine receptor = D(2) dopamine receptor (Rattus norvegicus, UniProt P61169); assay: Displacement of [3H]-Spiperone from Dopamine receptor D2 in rat striatum
D(2) dopamine receptor, sequence (P61169 whole entry): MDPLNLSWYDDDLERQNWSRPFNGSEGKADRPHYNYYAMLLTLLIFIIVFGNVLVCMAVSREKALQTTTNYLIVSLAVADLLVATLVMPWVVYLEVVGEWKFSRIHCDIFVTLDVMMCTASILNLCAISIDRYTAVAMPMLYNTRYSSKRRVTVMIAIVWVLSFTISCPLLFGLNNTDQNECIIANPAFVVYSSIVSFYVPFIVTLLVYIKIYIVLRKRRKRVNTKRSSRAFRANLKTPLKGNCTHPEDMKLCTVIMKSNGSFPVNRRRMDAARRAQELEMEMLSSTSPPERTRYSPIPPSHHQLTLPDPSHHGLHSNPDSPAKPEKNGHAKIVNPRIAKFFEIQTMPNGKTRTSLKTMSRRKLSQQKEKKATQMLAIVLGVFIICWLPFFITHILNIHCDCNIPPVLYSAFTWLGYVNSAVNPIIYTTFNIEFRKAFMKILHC

Rattus norvegicus [2] = assay: Suppression of conditioned avoidance behavior in rats after ip administration; type: functional
[3] = target: Serotonin 2 (5-HT2) receptor (Rattus norvegicus, UniProt P30994+P08909+P14842); assay: Potency to displace [3H]- Spiperone from 5-hydroxytryptamine 2 receptor […]
Rattus norvegicus [4] = assay: Induction of catalepsy in rats when administered intraperitoneally 4 hr prior to measurement to groups of nine animals; type: functional; conditions: ip
[5] = Activity calculated as Na+ ratio [IC50 (+Na+) / IC50 (-Na+)]; type: functional
Mus musculus = assay: Antagonism of apomorphine-induced climbing behavior in mice after ip administration; type: functional
[6] = target: T1, Adrenergic receptor alpha-1 (Rattus norvegicus, UniProt P15823+P23944+P43140); assay: Potency to displace [3H]- WB-4101 from alpha-1 adrenergic receptor in rat striatum
T1 sequence (P15823 whole entry): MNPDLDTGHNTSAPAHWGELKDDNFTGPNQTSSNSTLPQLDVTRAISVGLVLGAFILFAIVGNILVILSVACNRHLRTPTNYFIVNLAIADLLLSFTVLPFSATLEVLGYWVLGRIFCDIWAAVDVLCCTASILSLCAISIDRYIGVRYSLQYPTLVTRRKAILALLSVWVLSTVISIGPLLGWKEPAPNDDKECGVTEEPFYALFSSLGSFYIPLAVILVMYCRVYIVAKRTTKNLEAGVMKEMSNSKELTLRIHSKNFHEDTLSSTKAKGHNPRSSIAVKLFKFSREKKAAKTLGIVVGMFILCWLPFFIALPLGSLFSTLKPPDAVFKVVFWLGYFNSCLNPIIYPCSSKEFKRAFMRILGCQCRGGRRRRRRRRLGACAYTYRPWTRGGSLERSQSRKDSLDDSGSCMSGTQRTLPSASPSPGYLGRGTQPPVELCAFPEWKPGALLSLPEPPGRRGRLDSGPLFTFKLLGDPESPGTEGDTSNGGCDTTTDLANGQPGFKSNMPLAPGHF
T1 sequence (P23944 whole entry): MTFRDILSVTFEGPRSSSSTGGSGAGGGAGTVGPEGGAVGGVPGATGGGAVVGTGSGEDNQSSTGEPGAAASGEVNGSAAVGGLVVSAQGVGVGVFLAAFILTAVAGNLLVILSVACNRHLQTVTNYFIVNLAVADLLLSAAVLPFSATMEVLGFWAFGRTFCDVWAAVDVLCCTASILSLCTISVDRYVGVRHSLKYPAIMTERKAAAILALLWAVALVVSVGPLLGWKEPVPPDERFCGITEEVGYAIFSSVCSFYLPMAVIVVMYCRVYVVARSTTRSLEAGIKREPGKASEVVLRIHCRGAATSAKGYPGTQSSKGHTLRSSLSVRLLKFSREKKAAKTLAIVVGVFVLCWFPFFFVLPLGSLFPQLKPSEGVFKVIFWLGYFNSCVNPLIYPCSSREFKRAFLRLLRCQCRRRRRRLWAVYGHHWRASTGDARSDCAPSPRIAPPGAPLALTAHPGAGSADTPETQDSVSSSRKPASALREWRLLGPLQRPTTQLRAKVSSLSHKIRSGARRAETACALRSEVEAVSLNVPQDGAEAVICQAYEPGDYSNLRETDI
T1 sequence (P43140 whole entry): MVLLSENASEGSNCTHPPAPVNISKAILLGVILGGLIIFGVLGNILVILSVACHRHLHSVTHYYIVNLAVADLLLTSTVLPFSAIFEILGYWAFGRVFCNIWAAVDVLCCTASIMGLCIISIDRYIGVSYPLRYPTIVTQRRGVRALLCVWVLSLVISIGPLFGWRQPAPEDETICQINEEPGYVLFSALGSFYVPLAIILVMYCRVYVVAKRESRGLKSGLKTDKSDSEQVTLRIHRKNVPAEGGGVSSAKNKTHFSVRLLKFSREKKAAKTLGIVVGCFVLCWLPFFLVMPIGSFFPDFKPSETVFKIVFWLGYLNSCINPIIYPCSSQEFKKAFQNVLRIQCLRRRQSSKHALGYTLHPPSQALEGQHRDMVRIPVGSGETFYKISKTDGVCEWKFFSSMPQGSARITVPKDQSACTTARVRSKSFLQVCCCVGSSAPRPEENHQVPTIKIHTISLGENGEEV

Compound	Ki (D(2) dopamine receptor) [nM]	ED50 (Rattus norvegicus [1]) [mg/kg]	ED50 (Rattus norvegicus [2]) [mg/kg]	further results
O=C(c1ccc(F)cc1)C1CCN(Cc2ccc(-c3ccc(F)cc3)[nH]2)CC1	12	34	–	–
COc1ccccc1N1CCN(Cc2ccc(-c3ccccc3)n2-c2ccccc2)CC1	160	> 100	–	–
Fc1ccc(-c2ccc(CN3CCN(c4ccc(F)cc4)CC3)[nH]2)cc1	16	40	–	–
COc1ccccc1N1CCN(Cc2ccc(-c3ccc(F)cc3)n2C)CC1	20	–	–	–
COc1ccccc1-c1ccc(CN2CCN(c3ccccc3OC)CC2)[nH]1	6.5	–	> 100	–
O=C(NCCN1CCN(c2cccc3ccoc23)CC1)c1ccc(F)cc1	7.1	21	2.7	Ki [3]: 29 nM; ED50 (Rattus norvegicus [4]): > 30 mg/kg; Na+ ratio [5]: 2.5; ED50 (Mus musculus): 1.8 mg/kg; Ki [6]: 9.7 nM
CCS(=O)(=O)c1ccc(OC)c(-c2ccc(CN3CCN(c4ccccc4OC)CC3)[nH]2)c1	7	–	–	–
Fc1ccc(-c2ccc(CN3CCN(c4cccc(C(F)(F)F)c4)CC3)[nH]2)cc1	19	21	–	–
COc1ccccc1N1CCN(CCNC(=O)c2ccc(F)cc2)CC1	–	–	0.7	–
OCCN1CCN(Cc2ccc(-c3ccc(F)cc3)[nH]2)CC1	31000	–	> 100	–
COc1ccccc1N1CCN(Cc2ccc(-c3ccc(C(C)C)cc3)[nH]2)CC1	59	–	> 100	–
COc1ccccc1N1CCN(Cc2ccc(-c3ccc(C(F)(F)F)cc3)[nH]2)CC1	25	45	–	–
O=C(c1ccc(F)cc1)N1CCN(Cc2ccc(-c3ccc(F)cc3)[nH]2)CC1	120	34	–	–
Fc1ccc(-c2ccc(CN3CCC(c4ccccc4)CC3)[nH]2)cc1	11	–	> 100	–
COc1ccccc1N1CCN(Cc2ccc(-c3ccc(F)cc3)n2CCO)CC1	52	> 100	–	–
CCCn1c(CN2CCN(c3ccccc3OC)CC2)ccc1-c1ccc(F)cc1	110	–	> 50	–

Second part, led by results:

Ki (D(2) dopamine receptor) [nM]	Compound	ED50 (Rattus norvegicus [1]) [mg/kg]	ED50 (Rattus norvegicus [2]) [mg/kg]	further results
4.4	COc1ccccc1N1CCN(Cc2ccc(-c3cccc(Cl)c3)[nH]2)CC1	> 100	–	–
0.68	c1ccc(-c2ccc(CN3CCN(c4cccc5c4OCCCO5)CC3)[nH]2)cc1	12	–	ED50 (Mus musculus): 0.2 mg/kg
0.96	COc1ccccc1N1CCN(Cc2ccc(-c3ccc(F)cc3)[nH]2)CC1	–	–	ED50 (Rattus norvegicus [4]): > 23 mg/kg; Na+ ratio [5]: 2.3
5.1	O=C(CCCN1CCN(c2cccc3ccoc23)CC1)c1ccc(F)cc1	7.6	5.6	Ki [3]: 8.2 nM; Na+ ratio [5]: 1.4; ED50 (Mus musculus): 5 mg/kg; Ki [6]: 1.5 nM
0.76	COc1ccccc1N1CCN(Cc2ccc(-c3ccccc3)[nH]2)CC1	13	1.9	ED50 (Mus musculus): 0.4 mg/kg
1.1	COc1ccccc1N1CCN(Cc2ccc(-c3c(F)cccc3F)[nH]2)CC1	30	–	–
1	COc1ccccc1C1CCN(Cc2ccc(-c3ccccc3)[nH]2)CC1	100	–	ED50 (Mus musculus): 1.7 mg/kg
0.45	Fc1ccc(-c2ccc(CN3CCN(c4cccc5ccoc45)CC3)[nH]2)cc1 [ELOPIPRAZOLE]	2.5	5.4	Ki [3]: 120 nM; ED50 (Rattus norvegicus [4]): > 54 mg/kg; Na+ ratio [5]: 2; ED50 (Mus musculus): 2.3 mg/kg; Ki [6]: 220 nM
2.4	COc1ccccc1N1CCN(CCCC(=O)c2ccc(F)cc2)CC1 [FLUANISONE]	–	–	Na+ ratio [5]: 1.4
